Test results reported in US11274115B2, “Imidazoquinoline derivatives and their use in therapy” (GLAXOSMITHKLINE BIOLOGICALS SA, priority 2016, dated 2022).
Read-outs that look alike come from different tables or passages of the source.

Assays:
Type in all cases: cell-based
[1] = test system: human peripheral blood mononuclear cells (hPBMCs); test: IFN-α induction in hPBMCs; details: 24 h
Description: (§1) Assays to Measure Cytokine Induction
(§2) Test compounds were evaluated for cytokine induction in human peripheral blood mononuclear cells (hPBMCs).
(§3) Primary human PBMCs were isolated from fresh blood from healthy donors via Ficoll gradient separation and plated at 0.5×10^6 cells/well in 96-well tissue culture plates (RPMI-1640 plus 10% FBS). hPBMCs were maintained with RPMI-1640 culture media (Invitrogen, Grand Island, N.Y.), antibiotics (Invitrogen) and 10% FBS (Sigma).
(§4) Incubation and Assays for IFN-γ, IFN-α and TNF-α
(§5) hPBMCs were stimulated for 24 h with aqueous formulations of test compounds. Culture supernatants were analyzed for TNF-α and IFN-γ induction using multiplex kits (FluoroKine multiplex kits from R&D Systems, Minneapolis, Minn.) and for IFN-α induction using human IFN-α VeriKine ELISA kit (Pestka Biomedical Laboratories, Inc., Piscataway, N.J.).

[2] = target: T1, human TLR7 (Homo sapiens, UniProt Q9NYK1); test: hTLR7 agonist reporter assay in HEK293 cells (NFκB-SEAP); details: for EC50: read-out: hTLR7 ED50; for hTLR7/8 ratio: hTLR7 ED50 over hTLR8 ED50
T1 construct: host or cells: HEK293
T1 sequence (Q9NYK1 27-1049): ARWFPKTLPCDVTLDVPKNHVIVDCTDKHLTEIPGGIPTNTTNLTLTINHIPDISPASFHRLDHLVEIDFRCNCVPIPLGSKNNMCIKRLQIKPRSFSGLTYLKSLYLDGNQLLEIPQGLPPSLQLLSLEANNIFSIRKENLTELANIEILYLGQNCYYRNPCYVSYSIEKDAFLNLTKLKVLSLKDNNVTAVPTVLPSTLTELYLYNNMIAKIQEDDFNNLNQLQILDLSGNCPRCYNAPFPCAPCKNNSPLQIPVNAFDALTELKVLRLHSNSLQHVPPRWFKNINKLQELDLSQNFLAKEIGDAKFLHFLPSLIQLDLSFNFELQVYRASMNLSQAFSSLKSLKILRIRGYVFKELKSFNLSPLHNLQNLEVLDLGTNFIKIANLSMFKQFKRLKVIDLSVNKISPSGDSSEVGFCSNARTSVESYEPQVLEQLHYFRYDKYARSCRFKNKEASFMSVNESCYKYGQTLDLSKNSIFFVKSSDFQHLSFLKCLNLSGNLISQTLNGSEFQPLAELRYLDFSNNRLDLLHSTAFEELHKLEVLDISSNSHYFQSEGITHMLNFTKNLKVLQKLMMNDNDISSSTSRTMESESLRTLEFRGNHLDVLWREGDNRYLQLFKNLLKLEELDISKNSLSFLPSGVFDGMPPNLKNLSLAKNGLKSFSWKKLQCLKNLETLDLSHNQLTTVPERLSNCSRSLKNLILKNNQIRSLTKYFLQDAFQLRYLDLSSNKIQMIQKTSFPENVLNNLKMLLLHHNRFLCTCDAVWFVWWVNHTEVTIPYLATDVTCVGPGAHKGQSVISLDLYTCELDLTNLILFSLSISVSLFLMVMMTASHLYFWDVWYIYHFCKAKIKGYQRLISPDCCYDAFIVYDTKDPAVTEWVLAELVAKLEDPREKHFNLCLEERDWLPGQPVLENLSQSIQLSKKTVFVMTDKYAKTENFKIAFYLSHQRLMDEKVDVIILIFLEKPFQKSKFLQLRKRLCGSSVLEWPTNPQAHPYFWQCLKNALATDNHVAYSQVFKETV
Description: Assay for hTLR7 and hTLR8 Agonist Activity in HEK-293 Cells
Determination of TLR agonist activity was performed using the HEK293 […]. This assay measures TLR7 and TLR8 selectivity and potency of the compounds tested. HEK293 cells expressing human TLR7 or TLR8 and NFκB responsive Secreted Embryonic Alkaline Phosphatase (SEAP) reporter gene were obtained from InvivoGen (San Diego, Calif.). These cells were maintained in culture media of Dulbecco's Modified Eagle Medium (DMEM) (Invitrogen, Grand Island, N.Y.), 10% Fetal Bovine Serum (FBS) (Sigma, St. Louis, Mo.) and selection antibiotics (Invitrogen, and Invivogen). HEK293 stably transfected with human TLR7 (hTLR7) or human TLR8 (hTLR8) were stimulated for 24 h with aqueous formulations of test compounds and culture supernatants were analyzed for NFκB activation using the colorimetric SEAP detection kit QuantBlue (InvivoGen).

[3] = test system: human peripheral blood mononuclear cells (hPBMCs); test: IFN-γ induction in hPBMCs; details: 24 h
Description: as §1, §2, §3, §4, §5

CCCCCCCC/C=C\CCCCCCCC(=O)OC[C@H](COP(=O)(O)OCCOc1ccc2c(c1)nc(N)c1nc(CCCC)n(CCO)c12)OC(=O)CCCCCCC/C=C\CCCCCCCC [Example 1]
IFN-α induction, in words ([1]; FIG. 10): equipotent at inducing IFN-α and these were more potent than Comparative Example 1 and Comparative Example 2 in this assay at a lower dose | IFN-α induction, in words ([1]; FIG. 12, another occasion): more potent at inducing IFN-α than Comparative Examples 1, 2 and 3 | IFN-α induction, in words ([1]; FIG. 14, another occasion): very effective at inducing IFN-α | IFN-α induction, in words ([1]; FIG. 16, another occasion): good activity in inducing IFN-α | selectivity hTLR8/hTLR7, in words ([2]; Table 1): notable selectivity for hTLR8/hTLR7 | EC50 ([2]; Table 1, FIG. 1, 24 h stimulation, aqueous formulations): 1.06 µM | hTLR7/8 ratio ([2]; Table 1): 11.0 | EC50 ([2]; Table 2, FIG. 3, another occasion, * = only very low levels of NFKB activation were detected): 7 µM | hTLR7/8 ratio ([2]; Table 2): 8.9 | hTLR7 agonist activity, in words ([2]; Table 3, FIG. 5): agonist of both TLR7 and TLR8 | EC50 ([2]; Table 3, FIG. 5, another occasion, * = only very low levels of NFKB activation were detected): 4.1 µM | hTLR7/8 ratio ([2]; Table 3): 6.9 | EC50 ([2]; Table 4, FIG. 7, another occasion): 7 µM | hTLR7/8 ratio ([2]; Table 4): 9.9 | hTLR7 agonist activity, in words ([2]; text on Table 1, FIG. 1): significantly more potent as an agonist of hTLR7 and hTLR8 than Comparative Example 2 | hTLR7 agonist activity, in words ([2]; text on Table 2, FIG. 3): more active than Comparative Example 2 as an agonist of hTLR7 and hTLR8 | IFN-γ induction, in words ([3]; FIG. 9): more potent than Comparative Example 3 but less potent than Comparative Example 1 | IFN-γ induction, in words ([3]; FIG. 11, another occasion): potent at inducing IFN-γ and each was more potent than Comparative Example 3
